From patent US20110028554A1, “PHARMACEUTICAL COMPOSITIONS COMPRISING DIIODOTHYRONINE AND THEIR THERAPEUTIC USE” (UNIVERSITE JOSEPH FOURIER, priority 2007, published 2011)

Assays:
[1] = system: nuclear receptors of the thyroid hormones, TRα-1 and TRβ-1; details: literature; cited from earlier work
[2] = Plasmatic concentrations of glucose, triglycerides, cholesterol, FFA and HDL on the day of sacrifice; type: in vivo, Wistar, Zucker and ZDF rats; details: non-diabetic Wistar rats, 3,3′-T2 treatment (dose not printed in FIG. 15A legend)
Excerpt: These measurements were done on venous blood of the rats the day of the sacrifice.
(§1) At the end of the experimental period, animals were sacrificed by decapitation, in order to avoid the well-known effects of general anesthetics on mitochondrial metabolism. Blood, samples were immediately collected and plasma was frozen for subsequent determination of serum metabolites and hormones. Liver, muscles and fat depots were quickly excised and weighed. Liver median lobe was rapidly freeze-clamped. Muscles (plantaris, soleus and gastrocnemius) were frozen in isopentane precooled in liquid nitrogen. Mesenteric fat consisted, of adipose tissue surrounding the gastro-intestinal tract from the gastro-oesophageal sphincter to the end of the rectum with special care taken in distinguishing and removing the pancreas. Retroperitoneal fat pad was taken as the distinct depot behind each kidney along the lumbar muscles. Epididymal fat consisted, of adipose tissue on top of the epididymis. For subcutaneous depot measurement, a rectangular piece of skin was taken on the right side of each animal from the median line of the abdomen between the spine and the right hip to the first rib. Interscapular brown adipose tissue was removed and dissected free from adjacent muscles and white adipose tissue. The heart ventricles, the right kidney and the spleen were also excised, weighed and frozen.
Glucose and 3-hydroxybutyrate (3-HB) were measured, enzymatically and non esterified fatty acid (NEFA) by colorimetric assay (Wako Chemicals).
Triglycerides and cholesterol were measured by classical routine automate apparatus.

liver mitochondria = test: Liver mitochondrial oxygen consumption (JO2) of treated Wistar rats; type: in vivo; details: high dosage 25 μg/100 g BW
Protocol: All measurements were performed using mitochondria (1.0 mg mitochondrial protein/ml) incubated with various substrates: • GM: glutamate/malate (5 mM/2.5 mM) • SR: succinate/rotenone (5 mM/5 μM), • GMS: glutamate/malate/succinate (5 mM/2.5 mM/5 mM), • Palm: palmitoyl carnitine (55 μM), • Octa: octanoyl carnitine (100 μM), • TMPD/AsC: TMPD/ascorbate (0.5 mM/0.5 mM), and • TMPD/AsC/DNP: TMPD/ascorbate/DNP (0.5 mM/0.5 mM/75 μM).
JO2 was recorded in the presence of the substrate and following the addition of 1 mM ADP (adenosine diphosphate) (state 3).
The oligomycin was added to the mitochondrial suspension to determine the non-phosphorylating respiratory-rate (state 4).
(§2) The major part of the liver and the red part of each quadriceps were rinsed, and chopped into isolation medium (250 mM sucrose, 20 mM Tris-HCl and 1 mM EGTA-Tris, pH 7.4). Nuclei and cell debris were removed, by centrifugation at 800 g for 10 min. Mitochondria were then isolated from the supernatant by spinning twice at 8,000 g for 10 minutes. The mitochondrial pellet was resuspended in 0.5 ml of isolation buffer and kept on ice. Mitochondrial protein was measured by the bicinchoninic acid method (Pierce, Rockford, Ill.). The final mitochondrial suspensions were maintained on ice and were used for measurements of oxygen consumption rate and reactive oxygen species (ROS) production.
(§3) The rate of mitochondrial oxygen consumption (JO2) was measured at 30° C. in an incubation chamber with a Clark-type O2 electrode filled with 2 ml of incubation medium (125 mM KCl, 10 mM Pi-Tris, 20 mM Tris-HCl, 0.1 mM EGTA, pH 7.2). All measurements were performed using mitochondria (1.0 or 0.2 mg mitochondrial protein/ml for liver and skeletal muscle) incubated either with various substrates: glutamate/malate (5 mM/2.5 mM) and succinate (5 mM), alone or in combination, palmitoyl carnitine (55 μM) and octanoyl carnitine (100 μM). For each substrate, JO2 was recorded in the presence of the substrate alone (State 2) and following the addition of 1 mM ADP (state 3). Oligomycin (1.25 μg/mg protein) was added to the mitochondrial suspension to determine the non-phosphorylating respiratory rate (state 4). The incubation medium was constantly stirred with a built-in electromagnetic stirrer and bar flea. The efficiency of the mitochondrial oxidative phosphorylation was assessed by the state 3/state 4 ratio which measures the degree of control imposed on oxidation by phosphorylation (respiratory control ratio, RCR).

[3] = Food intake of Wistar rats; type: in vivo; details: high dosage 25 μg/100 g BW
Protocol: (§4) Adult male rat bred in the animal room facilities of Laboratory of Fundamental and Applied. Bioenergetics (Wistar strain) or purchased from Charles-River Laboratories, Domaine des oncins, L'ARBRESLE France [(genetically obese normoglycemic (Zucker or Fa/Fa) or diabetic (ZDF)] were caged individually in stainless steel hanging cages and maintained in a 22° C., 50±10% relative humidity and 12 h:12 h light:dark environment. All animals were fed ad libitum with a standard rat chow (Safe A04, Villemoisson, France) and tap water. Body mass and food intake were recorded twice/thrice a week and fresh food was provided, at the same time to ensure minimal disturbance to the animals' food, behavior.
(§5) Eight-week old rats (300 g±10 g) were anesthetized by simultaneous intraperitoneal injection of diazepam 4 mg/kg and ketamine 100 mg/kg. In order to maintain body temperature during the surgery (10 min), animals were placed on a warm blanket. After interscapular shaving, a small incision of 0.5 cm of the skin allows the subcutaneous implantation of a small pellet (containing rT3 or 3′,3-T2) with a 10-gauge precision trochar. The pellets, manufactured by Innovative Research of America (Sarasota, Fla., USA) are constituted of a biodegradable matrix that effectively and continuously release the active product in the animal.
(§6) 3-5 diiodothyronine (3-5 T2) or 3-3′diiodothyronine (3-3′ T2) were used at different doses (5, 0.5, or 0.1 mg/pellet) were implanted in order to provide a continuous and constant drug delivery over 60 days (which represents 25 μg, 2.5 μg or 0.5 μg/day/100 g BW).

muscle mitochondria = test: Muscle mitochondrial oxygen consumption (JO2) of treated Wistar rats; type: in vivo; details: high dosage 25 μg/100 g BW
Protocol: All measurements were performed using mitochondria (0.2 mg mitochondrial protein/ml) incubated with various substrates: • GM: glutamate/malate (5 mM/2.5 mM) • SR: succinate/rotenone (5 mM/5 μM), • GMS: glutamate/malate/succinate (5 mM/2.5 mM/5 mM), • Palm: palmitoyl carnitine (55 μM), • Octa: octanoyl carnitine (100 μM), • TMPD/AsC: TMPD/ascorbate (0.5 mM/0.5 mM), and • TMPD/AsC/DNP: TMPD/ascorbate/DNP (0.5 mM/0.5 mM/75 μM).
JO2 was recorded in the presence of the substrate and following the addition of 1 mM ADP (state 3).
The oligomycin was added to the mitochondrial suspension to determine the non-phosphorylating respiratory rate (state 4).
as §2, §3

[4] = Body composition (adipose tissues, skeletal muscles, brown adipose tissue) of Wistar rats; type: in vivo; details: high dosage 25 μg/100 g BW
Excerpt: as §1

[5] = Growth rate (body weight) of Wistar rats with subcutaneous continuous-release pellet; type: in vivo; details: high dosage 25 μg/100 g BW
Protocol: as §4, §5, §6

Row | SMILES | Binding to the nuclear receptors [1] | Plasmatic glucose at the end of the treatment [2] | Liver mitochondrial respiratory rate, non-phosphorylating (state 4, oligomycin), vs placebo (liver mitochondria) | Liver mitochondrial respiratory rate, phosphorylating condition (state 3), vs placebo (liver mitochondria; all substrates) | Food intake vs placebo [3] | Muscle mitochondrial respiration, non-phosphorylating (state 4), vs placebo (muscle mitochondria) | Muscle mitochondrial respiration, phosphorylating (state 3), vs placebo (muscle mitochondria) | Brown adipose tissue weight vs placebo [4] | Fat masses, all localizations (retroperitoneal, epididymal, mesenteric, subcutaneous) vs placebo [4] | Muscle mass / lean body mass vs placebo [4] | Growth rate (body weight gain) vs placebo [5]
1 | N[C@@H](Cc1cc(I)c(Oc2cc(I)c(O)c(I)c2)c(I)c1)C(=O)O [T4, Thyroxine] | binds less efficiently | – | – | – | – | – | – | – | – | – | –
2 | N[C@@H](Cc1ccc(Oc2ccc(O)c(I)c2)c(I)c1)C(=O)O [3,3′-T2, 3′,3-diiodothyronine] | – | minor changes | substantially higher in the low 3,5-T2 group only | very significant increased respiratory rate | a biphasic effect was observed | failed to substantially affect | failed to substantially affect | significantly increased | significantly decreased | not affected | did not show similar weight gain
3 | N[C@@H](Cc1cc(I)c(Oc2ccc(O)c(I)c2)c(I)c1)C(=O)O [T3] | binds very efficiently | – | – | – | – | – | – | – | – | – | –
